Experimental data from ChEMBL document CHEMBL3044746, “Molecular modeling and pharmacophore approach for structural requirements of some 2-substituted-1-naphthols derivatives as potent 5-lipoxygenase inhibitors” (Med Chem Res, 2013).

Biological target: T1, Polyunsaturated fatty acid 5-lipoxygenase (Rattus norvegicus, UniProt P12527)
T1 sequence (P12527 whole entry): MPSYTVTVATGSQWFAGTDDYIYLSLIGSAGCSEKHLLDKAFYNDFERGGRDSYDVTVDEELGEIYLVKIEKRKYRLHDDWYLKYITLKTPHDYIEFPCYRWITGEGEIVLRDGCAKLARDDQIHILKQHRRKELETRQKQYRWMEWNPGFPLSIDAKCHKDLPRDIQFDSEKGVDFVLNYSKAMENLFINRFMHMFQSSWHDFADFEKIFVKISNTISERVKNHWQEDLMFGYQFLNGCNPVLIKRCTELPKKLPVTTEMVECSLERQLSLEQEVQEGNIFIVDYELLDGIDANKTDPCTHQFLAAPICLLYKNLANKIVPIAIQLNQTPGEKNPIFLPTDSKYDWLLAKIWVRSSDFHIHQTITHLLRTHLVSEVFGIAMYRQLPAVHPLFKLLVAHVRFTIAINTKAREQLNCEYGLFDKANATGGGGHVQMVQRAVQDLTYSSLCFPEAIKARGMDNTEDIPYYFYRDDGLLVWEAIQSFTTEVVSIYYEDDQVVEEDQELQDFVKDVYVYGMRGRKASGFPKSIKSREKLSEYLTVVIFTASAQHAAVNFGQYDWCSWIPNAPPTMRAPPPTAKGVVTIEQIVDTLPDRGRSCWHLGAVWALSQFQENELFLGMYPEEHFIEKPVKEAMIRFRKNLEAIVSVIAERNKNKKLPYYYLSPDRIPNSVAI
Assay: Inhibition of 5-lipoxygenase in Rattus norvegicus Rat basophil leukemia cells (RBL) cells

IC50 [nM]	SMILES
180	CCc1ccc2ccccc2c1O
160	O=C(Oc1ccccc1)c1cc(Cc2ccccc2)c(O)c2ccccc12
160	Oc1c(/C=C/c2ccccc2)ccc2ccccc12
57	CCOc1ccccc1Cc1ccc2ccccc2c1O
